Experiments:
Assay in all cases: Kinase panel
Format in all cases: biochemical
[1] = target: PI3KC2a(h) (Homo sapiens, UniProt O00443); conditions: read-out: % Residual Activity
Method: (§1) Kinome-wide selectivity of rilpivirine was measured using the kinase screening and profiling service of Eurofins Scientific (Le bois l’Evêque 86600. Celle-Lévescault, France) and Ki values were determined using radioisotope-based assays by Reaction Biology Corporation (Malvern, PA, USA). The experimental details of Eurofin Scientific and Reaction Biology services for relevant assays are available at https://www.eurofinsdiscoveryservices.com/services/in-Vitro-assays/kinases/kinase-profiler (accessed on 7 July 2021) and https://www.reactionbiology.com (accessed on 7 July 2021), respectively. Ki values were estimated from the corresponding IC50 values using the Cheng–Prusoff equation [21] and the Km (ATP) of individual kinase was used for IC50 determination.

[2] = target: T1, MAP4K3(h) (Homo sapiens, UniProt Q8IVH8); conditions: read-out: % Residual Activity
T1 construct: purchased Eurofins (KinaseProfiler)
T1 sequence (Q8IVH8 whole entry): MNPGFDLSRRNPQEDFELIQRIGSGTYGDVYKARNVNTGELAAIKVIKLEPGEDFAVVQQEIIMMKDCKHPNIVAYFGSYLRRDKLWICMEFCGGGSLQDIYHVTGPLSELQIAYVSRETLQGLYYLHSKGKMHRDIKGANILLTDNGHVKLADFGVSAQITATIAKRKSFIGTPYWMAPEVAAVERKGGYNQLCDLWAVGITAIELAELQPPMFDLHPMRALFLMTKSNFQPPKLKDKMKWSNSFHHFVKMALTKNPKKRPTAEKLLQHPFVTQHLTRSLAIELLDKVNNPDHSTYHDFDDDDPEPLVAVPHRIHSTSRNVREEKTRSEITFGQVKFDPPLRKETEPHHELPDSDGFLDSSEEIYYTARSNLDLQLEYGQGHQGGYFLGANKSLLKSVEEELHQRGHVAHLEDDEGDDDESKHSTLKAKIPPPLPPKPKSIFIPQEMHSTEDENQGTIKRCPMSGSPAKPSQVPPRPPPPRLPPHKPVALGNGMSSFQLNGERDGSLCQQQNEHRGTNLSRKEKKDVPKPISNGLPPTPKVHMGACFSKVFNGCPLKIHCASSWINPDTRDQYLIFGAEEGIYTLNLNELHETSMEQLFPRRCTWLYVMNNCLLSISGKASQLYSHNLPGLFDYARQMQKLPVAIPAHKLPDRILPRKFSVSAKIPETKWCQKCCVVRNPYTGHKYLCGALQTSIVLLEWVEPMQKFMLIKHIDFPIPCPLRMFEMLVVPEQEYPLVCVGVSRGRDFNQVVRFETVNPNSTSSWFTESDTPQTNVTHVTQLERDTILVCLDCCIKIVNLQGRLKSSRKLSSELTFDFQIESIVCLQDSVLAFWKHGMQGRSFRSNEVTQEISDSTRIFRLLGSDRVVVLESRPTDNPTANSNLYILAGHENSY
Method: as §1

[3] = target: T2, Fyn(h) (Homo sapiens, UniProt P06241); conditions: read-out: % Residual Activity
T2 construct: purchased Eurofins (KinaseProfiler)
Method: as §1

[4] = target: T3, SGK(h) (Homo sapiens, UniProt O00141); conditions: read-out: % Residual Activity
T3 construct: purchased Eurofins (KinaseProfiler)
Method: as §1

[5] = target: T4, PKA(h) (Homo sapiens, UniProt P17612); conditions: read-out: % Residual Activity
T4 construct: purchased Eurofins (KinaseProfiler)
Method: as §1

[6] = target: T5, CDKL2(h) (Homo sapiens, UniProt Q92772); conditions: read-out: % Residual Activity
T5 construct: purchased Eurofins (KinaseProfiler)
Method: as §1

[7] = target: T6, CDK14/cyclinY(h) (Homo sapiens, UniProt O94921); conditions: read-out: % Residual Activity
T6 construct: purchased Eurofins (KinaseProfiler)
Method: as §1

[8] = target: T7, DRAK1(h) (Homo sapiens, UniProt Q9UEE5); conditions: read-out: % Residual Activity
T7 construct: purchased Eurofins (KinaseProfiler)
T7 sequence (Q9UEE5 whole entry): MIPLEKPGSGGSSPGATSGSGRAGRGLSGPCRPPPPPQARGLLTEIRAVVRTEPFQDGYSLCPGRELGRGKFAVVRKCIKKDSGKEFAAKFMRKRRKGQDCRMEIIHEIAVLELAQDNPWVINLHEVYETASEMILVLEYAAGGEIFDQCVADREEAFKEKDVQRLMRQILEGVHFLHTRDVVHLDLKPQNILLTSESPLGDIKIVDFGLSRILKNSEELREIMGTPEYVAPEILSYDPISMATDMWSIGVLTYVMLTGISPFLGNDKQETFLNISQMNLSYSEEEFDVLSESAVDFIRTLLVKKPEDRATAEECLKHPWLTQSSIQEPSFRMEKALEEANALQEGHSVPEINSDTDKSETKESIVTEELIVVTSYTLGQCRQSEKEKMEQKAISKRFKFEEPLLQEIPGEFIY
Method: as §1

[9] = target: T8, Yes(h) (Homo sapiens, UniProt P07947)
T8 construct: purchased Eurofins (KinaseProfiler)
T8 sequence (P07947 whole entry): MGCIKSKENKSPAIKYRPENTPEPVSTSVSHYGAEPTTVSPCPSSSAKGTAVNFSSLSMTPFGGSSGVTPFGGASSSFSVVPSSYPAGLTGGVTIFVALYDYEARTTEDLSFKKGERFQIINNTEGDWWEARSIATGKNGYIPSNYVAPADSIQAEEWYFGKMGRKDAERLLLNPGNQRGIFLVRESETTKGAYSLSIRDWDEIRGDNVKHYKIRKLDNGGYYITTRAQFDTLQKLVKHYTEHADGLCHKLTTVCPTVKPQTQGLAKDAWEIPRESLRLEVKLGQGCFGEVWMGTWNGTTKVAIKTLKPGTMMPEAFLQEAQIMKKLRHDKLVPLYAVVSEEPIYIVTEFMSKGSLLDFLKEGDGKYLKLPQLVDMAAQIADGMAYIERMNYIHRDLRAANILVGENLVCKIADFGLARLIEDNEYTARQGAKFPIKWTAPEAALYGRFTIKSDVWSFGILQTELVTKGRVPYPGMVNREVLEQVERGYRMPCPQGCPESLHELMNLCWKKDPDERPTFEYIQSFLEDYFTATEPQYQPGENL
Method: as §1

[10] = target: T9, HRI(h) (Homo sapiens, UniProt Q9BQI3); conditions: read-out: % Residual Activity
T9 construct: purchased Eurofins (KinaseProfiler)
Method: as §1

[11] = target: T10, CDK5/p25(h) (Homo sapiens, UniProt Q00535); conditions: read-out: % Residual Activity
T10 construct: purchased Eurofins (KinaseProfiler)
T10 sequence (Q00535 whole entry): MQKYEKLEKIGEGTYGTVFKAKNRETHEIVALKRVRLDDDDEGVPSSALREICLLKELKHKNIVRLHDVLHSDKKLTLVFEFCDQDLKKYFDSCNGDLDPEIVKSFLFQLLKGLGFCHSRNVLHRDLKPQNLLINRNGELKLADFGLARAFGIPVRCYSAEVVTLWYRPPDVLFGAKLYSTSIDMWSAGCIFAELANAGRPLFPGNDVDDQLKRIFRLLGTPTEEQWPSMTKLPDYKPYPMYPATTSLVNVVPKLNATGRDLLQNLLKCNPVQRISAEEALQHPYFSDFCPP
T10 sequence (Q15078 99-307 partner limits assumed): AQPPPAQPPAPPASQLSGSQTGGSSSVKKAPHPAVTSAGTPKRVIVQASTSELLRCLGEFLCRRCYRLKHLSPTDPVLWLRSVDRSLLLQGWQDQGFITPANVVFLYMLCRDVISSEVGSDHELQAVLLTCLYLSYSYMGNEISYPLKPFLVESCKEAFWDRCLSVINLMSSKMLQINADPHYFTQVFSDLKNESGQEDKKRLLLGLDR
Method: as §1

[12] = target: T11, ALK2(h) (Homo sapiens, UniProt Q04771); conditions: read-out: % Residual Activity
T11 construct: purchased Eurofins (KinaseProfiler)
Method: as §1

[13] = target: T12, ROCK-II(h) (Homo sapiens, UniProt O75116); conditions: read-out: % Residual Activity
T12 construct: purchased Eurofins (KinaseProfiler)
Method: as §1

[14] = target: T13, PrKX(h) (Homo sapiens, UniProt P51817); conditions: read-out: % Residual Activity
T13 construct: purchased Eurofins (KinaseProfiler)
Method: as §1

[15] = target: PI3KC2g(h) (Homo sapiens, UniProt O75747); conditions: read-out: % Residual Activity
Method: as §1

[16] = target: T14, ZAK(h) (Homo sapiens, UniProt Q9NYL2); conditions: read-out: % Residual Activity
T14 construct: purchased Eurofins (KinaseProfiler)
Method: as §1

[17] = target: T15, GRK5(h) (Homo sapiens, UniProt P34947); conditions: read-out: % Residual Activity
T15 construct: purchased Eurofins (KinaseProfiler)
T15 sequence (P34947 whole entry): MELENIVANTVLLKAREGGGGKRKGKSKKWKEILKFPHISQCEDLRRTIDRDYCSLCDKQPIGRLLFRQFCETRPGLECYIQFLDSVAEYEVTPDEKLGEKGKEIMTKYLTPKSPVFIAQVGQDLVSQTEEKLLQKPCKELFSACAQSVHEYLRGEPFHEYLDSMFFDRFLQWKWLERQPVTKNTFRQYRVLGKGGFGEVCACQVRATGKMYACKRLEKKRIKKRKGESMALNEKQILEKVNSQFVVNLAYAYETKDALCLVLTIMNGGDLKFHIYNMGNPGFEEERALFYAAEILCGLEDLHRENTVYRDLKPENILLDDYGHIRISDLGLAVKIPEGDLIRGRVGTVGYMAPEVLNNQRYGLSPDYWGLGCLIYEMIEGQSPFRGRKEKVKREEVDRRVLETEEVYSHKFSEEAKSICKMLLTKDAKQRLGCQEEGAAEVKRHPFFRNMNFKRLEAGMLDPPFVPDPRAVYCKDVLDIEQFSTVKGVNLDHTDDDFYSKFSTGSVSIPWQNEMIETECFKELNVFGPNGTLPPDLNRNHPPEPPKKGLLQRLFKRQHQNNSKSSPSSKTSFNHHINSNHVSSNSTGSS
Method: as §1

[18] = target: T16, TSSK2(h) (Homo sapiens, UniProt Q96PF2); conditions: read-out: % Residual Activity
T16 construct: purchased Eurofins (KinaseProfiler)
Method: as §1

[19] = target: T17, SAPK2b(h) (Homo sapiens, UniProt Q15759); conditions: read-out: % Residual Activity
T17 construct: purchased Eurofins (KinaseProfiler)
Method: as §1

[20] = target: T18, LIMK2(h) (Homo sapiens, UniProt P53671); conditions: read-out: % Residual Activity
T18 construct: purchased Eurofins (KinaseProfiler)
Method: as §1

[21] = target: T19, CDK2/cyclinE(h) (Homo sapiens, UniProt P24941); conditions: read-out: % Residual Activity
T19 construct: purchased Eurofins (KinaseProfiler)
Method: as §1

[22] = target: T20, Pim-2(h) (Homo sapiens, UniProt Q9P1W9); conditions: read-out: % Residual Activity
T20 construct: purchased Eurofins (KinaseProfiler)
T20 sequence (Q9P1W9 whole entry): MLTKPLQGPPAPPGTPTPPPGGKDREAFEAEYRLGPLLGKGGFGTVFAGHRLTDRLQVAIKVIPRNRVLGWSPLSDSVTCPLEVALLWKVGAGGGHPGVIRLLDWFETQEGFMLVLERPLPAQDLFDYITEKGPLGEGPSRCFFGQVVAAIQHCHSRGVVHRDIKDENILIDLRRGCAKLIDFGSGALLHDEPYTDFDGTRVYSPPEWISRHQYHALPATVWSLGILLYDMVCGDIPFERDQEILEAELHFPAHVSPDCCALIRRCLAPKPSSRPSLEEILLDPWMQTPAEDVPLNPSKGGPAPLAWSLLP
Method: as §1

[23] = target: T21, MEK1(h) (Homo sapiens, UniProt Q02750); conditions: read-out: % Residual Activity
T21 construct: purchased Eurofins (KinaseProfiler)
Method: as §1

[24] = target: T22, ATM(h) (Homo sapiens, UniProt Q13315); conditions: read-out: % Residual Activity
T22 construct: purchased Eurofins (KinaseProfiler)
Method: as §1

[25] = target: T23, EphA2(h) (Homo sapiens, UniProt P29317); conditions: read-out: % Residual Activity
T23 construct: purchased Eurofins (KinaseProfiler)
Method: as §1

[26] = target: T24, PAK2(h) (Homo sapiens, UniProt Q13177); conditions: read-out: % Residual Activity
T24 construct: purchased Eurofins (KinaseProfiler)
Method: as §1

[27] = target: T25, SAPK2a(h) (Homo sapiens, UniProt Q16539); conditions: read-out: % Residual Activity
T25 construct: purchased Eurofins (KinaseProfiler)
Method: as §1

[28] = target: T26, CLK3(h) (Homo sapiens, UniProt P49761); conditions: read-out: % Residual Activity
T26 construct: purchased Eurofins (KinaseProfiler)
Method: as §1

[29] = target: T27, CaMKI(h) (Homo sapiens, UniProt Q14012); conditions: read-out: % Residual Activity
T27 construct: purchased Eurofins (KinaseProfiler)
Method: as §1

[30] = target: PIP4K2a(h) (Homo sapiens, UniProt P48426); conditions: read-out: % Residual Activity
Method: as §1

[31] = target: T28, Aurora-A(h) (Homo sapiens, UniProt O14965); conditions: read-out: % Residual Activity
T28 construct: purchased Eurofins (KinaseProfiler)
Method: as §1

[32] = target: T29, BTK(h) (Homo sapiens, UniProt Q06187); conditions: read-out: % Residual Activity
T29 construct: purchased Eurofins (KinaseProfiler)
Method: as §1

[33] = target: T30, PRP4(h) (Homo sapiens, UniProt Q13523); conditions: read-out: % Residual Activity
T30 construct: purchased Eurofins (KinaseProfiler)
Method: as §1

[34] = target: T31, MSK2(h) (Homo sapiens, UniProt O75676); conditions: read-out: % Residual Activity
T31 construct: purchased Eurofins (KinaseProfiler)
Method: as §1

[35] = target: T32, Fgr(h) (Homo sapiens, UniProt P09769); conditions: read-out: % Residual Activity
T32 construct: purchased Eurofins (KinaseProfiler)
Method: as §1

[36] = target: T33, MAPK2(h) (Homo sapiens, UniProt P28482); conditions: read-out: % Residual Activity
T33 construct: purchased Eurofins (KinaseProfiler)
Method: as §1

[37] = target: T34, HIPK3(h) (Homo sapiens, UniProt Q9H422); conditions: read-out: % Residual Activity
T34 construct: purchased Eurofins (KinaseProfiler)
Method: as §1

[38] = target: T35, ALK1(h) (Homo sapiens, UniProt P37023); conditions: read-out: % Residual Activity
T35 construct: purchased Eurofins (KinaseProfiler)
Method: as §1

[39] = target: T36, MYO3B(h) (Homo sapiens, UniProt Q8WXR4); conditions: read-out: % Residual Activity
T36 construct: purchased Eurofins (KinaseProfiler)
Method: as §1

Chain of PI3KC2a(h) (O00443 whole entry): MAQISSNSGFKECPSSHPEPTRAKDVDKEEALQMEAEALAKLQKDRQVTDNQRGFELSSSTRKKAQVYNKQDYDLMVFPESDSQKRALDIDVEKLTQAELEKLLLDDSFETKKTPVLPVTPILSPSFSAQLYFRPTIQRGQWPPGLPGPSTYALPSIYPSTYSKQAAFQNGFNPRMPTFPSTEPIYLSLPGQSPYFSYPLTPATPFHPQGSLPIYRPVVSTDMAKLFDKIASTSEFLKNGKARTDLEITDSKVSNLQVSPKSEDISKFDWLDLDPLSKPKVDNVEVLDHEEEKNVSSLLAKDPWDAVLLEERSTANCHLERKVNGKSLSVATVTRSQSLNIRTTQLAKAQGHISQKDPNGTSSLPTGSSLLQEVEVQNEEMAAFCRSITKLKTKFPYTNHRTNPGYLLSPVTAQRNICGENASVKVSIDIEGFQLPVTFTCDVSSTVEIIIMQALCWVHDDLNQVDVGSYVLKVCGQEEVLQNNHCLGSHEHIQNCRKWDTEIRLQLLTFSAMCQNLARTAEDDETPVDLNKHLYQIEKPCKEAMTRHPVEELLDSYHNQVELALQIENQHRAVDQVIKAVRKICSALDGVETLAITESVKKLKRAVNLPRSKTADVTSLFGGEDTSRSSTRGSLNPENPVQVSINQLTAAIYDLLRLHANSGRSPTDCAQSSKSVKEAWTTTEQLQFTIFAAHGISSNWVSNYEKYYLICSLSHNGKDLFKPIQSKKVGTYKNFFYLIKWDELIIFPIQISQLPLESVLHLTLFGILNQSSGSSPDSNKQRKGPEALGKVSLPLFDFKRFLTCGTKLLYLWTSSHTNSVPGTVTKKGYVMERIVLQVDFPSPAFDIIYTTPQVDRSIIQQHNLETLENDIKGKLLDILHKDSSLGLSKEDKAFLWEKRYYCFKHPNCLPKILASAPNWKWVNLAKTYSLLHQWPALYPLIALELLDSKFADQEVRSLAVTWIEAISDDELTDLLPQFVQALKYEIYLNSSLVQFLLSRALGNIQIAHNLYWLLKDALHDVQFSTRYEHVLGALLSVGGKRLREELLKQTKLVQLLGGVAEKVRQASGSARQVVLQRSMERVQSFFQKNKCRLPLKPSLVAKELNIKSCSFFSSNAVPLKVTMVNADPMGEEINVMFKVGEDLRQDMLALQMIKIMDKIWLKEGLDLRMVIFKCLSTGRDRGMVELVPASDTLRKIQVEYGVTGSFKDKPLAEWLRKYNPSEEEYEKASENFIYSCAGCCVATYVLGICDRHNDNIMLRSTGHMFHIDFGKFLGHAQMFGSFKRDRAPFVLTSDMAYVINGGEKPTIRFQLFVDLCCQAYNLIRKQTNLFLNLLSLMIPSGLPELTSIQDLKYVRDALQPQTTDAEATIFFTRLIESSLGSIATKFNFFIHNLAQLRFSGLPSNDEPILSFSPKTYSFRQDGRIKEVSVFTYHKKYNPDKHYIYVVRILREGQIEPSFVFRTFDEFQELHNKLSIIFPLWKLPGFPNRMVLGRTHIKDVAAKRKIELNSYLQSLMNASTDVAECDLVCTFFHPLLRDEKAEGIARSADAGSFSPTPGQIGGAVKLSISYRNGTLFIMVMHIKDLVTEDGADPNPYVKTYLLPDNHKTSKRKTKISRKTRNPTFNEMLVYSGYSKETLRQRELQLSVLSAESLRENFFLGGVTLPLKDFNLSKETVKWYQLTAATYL

## Cc1cc(/C=C/C#N)cc(C)c1Nc1ccnc(Nc2ccc(C#N)cc2)n1 [rilpivirine, (E)-4-((4-((4-(2-cyanoethenyl)-2,6-dimethylphenyl)amino)pyrimidin-2-yl)amino)benzonitrile]
[1]
  remaining activity at 1 µM: 94%
[2]
  remaining activity at 1 µM: 91%
[3]
  remaining activity at 1 µM: 49%
[4]
  remaining activity at 1 µM: 97%
[5]
  remaining activity at 1 µM: 93%
[6]
  remaining activity at 1 µM: 100%
[7]
  remaining activity at 1 µM: 91%
[8]
  remaining activity at 1 µM: 76%
[9]; YES, read-out: inhibitory activity
  inhibition at 1 µM: > 70%
[9]; read-out: % Residual Activity
  remaining activity at 1 µM: 17%
[10]
  remaining activity at 1 µM: 91%
[11]
  remaining activity at 1 µM: 97%
[12]
  remaining activity at 1 µM: 91%
[13]
  remaining activity at 1 µM: 98%
[14]
  remaining activity at 1 µM: 97%
[15]
  remaining activity at 1 µM: 82%
[16]
  remaining activity at 1 µM: 99%
[17]
  remaining activity at 1 µM: 96%
[18]
  remaining activity at 1 µM: 91%
[19]
  remaining activity at 1 µM: 98%
[20]
  remaining activity at 1 µM: 71%
[21]
  remaining activity at 1 µM: 92%
[22]
  remaining activity at 1 µM: 56%
[23]
  remaining activity at 1 µM: 101%
[24]
  remaining activity at 1 µM: 111%
[25]
  remaining activity at 1 µM: 72%
[26]
  remaining activity at 1 µM: 89%
[27]
  remaining activity at 1 µM: 84%
[28]
  remaining activity at 1 µM: 93%
[29]
  remaining activity at 1 µM: 92%
[30]
  remaining activity at 1 µM: 103%
[31]
  remaining activity at 1 µM: 14%
[32]
  remaining activity at 1 µM: 90%
[33]
  remaining activity at 1 µM: 113%
[34]
  remaining activity at 1 µM: 105%
[35]
  remaining activity at 1 µM: 37%
[36]
  remaining activity at 1 µM: 101%
[37]
  remaining activity at 1 µM: 92%
[38]
  remaining activity at 1 µM: 84%
[39]
  remaining activity at 1 µM: 96%
